Measured values taken from paper PMC11284203 (Scientific Reports, 2024).
“Also recorded” adds a separate entry of the source.

Tests used:
[1] = biological target: T1, α-glucosidase (Saccharomyces cerevisiae, UniProt P53341); test: α-glucosidase inhibition assay
[2] = biological target: T1, α-glucosidase; details: Lineweaver–Burk plot
[3] = biological target: T1, α-glucosidase; test: biochemical

T1 sequence (P53341 whole entry): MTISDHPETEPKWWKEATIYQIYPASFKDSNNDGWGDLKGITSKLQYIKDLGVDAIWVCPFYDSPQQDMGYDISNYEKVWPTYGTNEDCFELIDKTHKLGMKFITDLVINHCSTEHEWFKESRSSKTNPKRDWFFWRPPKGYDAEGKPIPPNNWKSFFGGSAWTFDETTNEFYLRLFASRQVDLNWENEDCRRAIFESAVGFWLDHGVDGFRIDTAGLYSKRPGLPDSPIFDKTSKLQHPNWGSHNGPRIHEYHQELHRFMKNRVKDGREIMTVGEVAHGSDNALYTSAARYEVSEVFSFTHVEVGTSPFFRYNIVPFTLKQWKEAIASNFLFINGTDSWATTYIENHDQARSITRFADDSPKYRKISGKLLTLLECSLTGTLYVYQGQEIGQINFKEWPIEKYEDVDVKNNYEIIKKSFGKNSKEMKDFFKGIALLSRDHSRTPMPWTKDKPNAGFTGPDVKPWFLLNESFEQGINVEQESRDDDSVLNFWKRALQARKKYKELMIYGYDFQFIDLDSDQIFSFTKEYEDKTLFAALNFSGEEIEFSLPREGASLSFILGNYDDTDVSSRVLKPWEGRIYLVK

SMILES	IC50 [1] [µM]	Ki [3] [µM]	mode of inhibition [2]
COc1cccc(Cn2cc(CSc3c4ccc(Cl)cc4nc4ccc(OC)cc34)nn2)c1 [Compound 7b, 9-((1-(3-methoxybenzyl)-1H-1,2,3-triazol-4-yl)methylthio)-6-chloro-2-methoxyacridine]	> 750		
COc1ccc(Cn2cc(CSc3c4ccc(Cl)cc4nc4ccc(OC)cc34)nn2)cc1 [Compound 7c, 9-((1-(4-methoxybenzyl)-1H-1,2,3-triazol-4-yl)methylthio)-6-chloro-2-methoxyacridine]	> 750		
COc1ccc2nc3cc(Cl)ccc3c(SCc3cn(Cc4ccccc4C)nn3)c2c1 [Compound 7d, 6-chloro-2-methoxy-9-(((1-(2-methylbenzyl)-1H-1,2,3-triazol-4yl)methyl)thio)acridine]	482 ± 0.2		
COc1ccc2nc3cc(Cl)ccc3c(SCc3cn(Cc4cccc(C)c4)nn3)c2c1 [Compound 7e, 6-chloro-2-methoxy-9-(((1-(3-methylbenzyl)-1H-1,2,3-triazol-4-yl)methyl)thio)acridine]	> 750		
COc1ccc2nc3cc(Cl)ccc3c(SCc3cn(Cc4ccccc4Cl)nn3)c2c1 [Compound 7i, 9-((1-(2-chlorobenzyl)-1H-1,2,3-triazol-4-yl)methylthio) -6-chloro-2-methoxyacridine]	> 750		
COc1ccc2nc3cc(Cl)ccc3c(SCc3cn(Cc4ccccc4Br)nn3)c2c1 [Compound 7j, 9-((1-(2-bromobenzyl)-1H-1,2,3-triazol-4-yl)methylthio)-6-chloro-2-methoxyacridine]	302.8 ± 0.6		
COc1ccc2nc3cc(Cl)ccc3c(SCc3cn(Cc4cccc(Cl)c4Cl)nn3)c2c1 [Compound 7k, 9-((1-(2,3-dichlorobenzyl)-1H-1,2,3-triazol-4-yl)methylthio)-6-chloro-2-methoxyacridine]	> 750		
COc1ccc2nc3cc(Cl)ccc3c(SCc3cn(Cc4ccccc4[N+](=O)[O-])nn3)c2c1 [Compound 7m, 9-((1-(2-nitrobenzyl)-1H-1,2,3-triazol-4-yl)methylthio)-6-chloro-2methoxyacridine]	> 750		
COc1ccc2nc3cc(Cl)ccc3c(SCc3cn(Cc4ccc([N+](=O)[O-])cc4)nn3)c2c1 [Compound 7n, 9-((1-(4-nitrobenzyl)-1H-1,2,3-triazol-4-yl)methylthio) -6-chloro-2-methoxyacridine]	> 750		

Stronger by IC50 [1], values ahead:

IC50 [1] [µM]	Ki [3] [µM]	SMILES	mode of inhibition [2]
169.1 ± 0.9		COc1ccc2nc3cc(Cl)ccc3c(SCc3cn(Cc4ccccc4)nn3)c2c1 [Compound 7a, 9-((1-benzyl-1H-1,2,3-triazol-4-yl)methylthio)-6-chloro-2-methoxyacridine]	
123.1 ± 0.8		COc1ccc2nc3cc(Cl)ccc3c(SCc3cn(Cc4ccc(C)cc4)nn3)c2c1 [Compound 7f, 6-chloro-2-methoxy-9-(((1-(4-methylbenzyl)-1H-1,2,3-triazol-4-yl)methyl)thio) acridine]	
164 ± 0.6		COc1ccc2nc3cc(Cl)ccc3c(SCc3cn(Cc4cccc(F)c4)nn3)c2c1 [Compound 7g, 9-((1-(3-fluorobenzyl) -1H-1,2,3-triazol-4-yl)methylthio) -6-chloro-2-methoxyacridine]	
98 ± 0.3	98	COc1ccc2nc3cc(Cl)ccc3c(SCc3cn(Cc4ccc(F)cc4)nn3)c2c1 [Compound 7h, 9-((1-(4-fluorobenzyl)-1H-1,2,3-triazol-4-yl)methylthio)-6-chloro-2-methoxyacridine]	competitive inhibitor; also recorded: competitive inhibition
229.2 ± 1.3		COc1ccc2nc3cc(Cl)ccc3c(SCc3cn(Cc4ccc(Cl)cc4Cl)nn3)c2c1 [Compound 7l, 9-((1-(2,4-dichlorobenzyl)-1H-1,2,3-triazol-4-yl)methylthio)-6-chloro-2-methoxyacridine]	
